Measurements: US5906930A, “Para-nitrobenzyl esterases with enhanced activity in aqueous and nonaqueous media” (California Institute of Technology, priority 1998, dated 1999)
Numbering of substitutions follows the chain as printed.

Columns and labels:
Experiment in all cases: Kinetic assays of purified pNB esterase (ester hydrolysis)
Type in all cases: biochemical
Conditions in all cases: 0.1M PIPES pH 7.0, 30° C.
[1] = biological target: T1, Bacillus subtilis para-nitrobenzyl esterase (pNB esterase), wild type 0-WT, SEQ. ID. NO. 2 (Bacillus subtilis, UniProt P37967); parameters: unit not given beside the values
T1 sequence (P37967 1-489 K23L/S59P/K95Q/N150D/S230A/G242S/K246R/S251A/A291S/V343A/K390E/L463V): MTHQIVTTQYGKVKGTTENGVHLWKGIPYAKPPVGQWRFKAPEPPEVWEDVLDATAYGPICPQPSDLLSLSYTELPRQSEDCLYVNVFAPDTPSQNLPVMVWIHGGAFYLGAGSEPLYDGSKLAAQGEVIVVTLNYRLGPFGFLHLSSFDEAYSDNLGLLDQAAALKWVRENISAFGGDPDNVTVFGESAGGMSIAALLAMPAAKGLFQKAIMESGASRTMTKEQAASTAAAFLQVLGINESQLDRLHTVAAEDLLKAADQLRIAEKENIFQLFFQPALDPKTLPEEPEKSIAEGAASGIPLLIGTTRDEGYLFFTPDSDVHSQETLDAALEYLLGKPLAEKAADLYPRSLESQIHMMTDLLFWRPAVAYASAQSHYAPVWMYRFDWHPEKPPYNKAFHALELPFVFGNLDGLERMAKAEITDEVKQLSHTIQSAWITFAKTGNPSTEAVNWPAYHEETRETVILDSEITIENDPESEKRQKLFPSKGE
Protocol: (§1) Bacteria expressing seven pNB esterases, 0-WT (SEQ. ID. NO. 2), 1-1H9, 2-19E10, 3-10C4, 4-38B9, 4-43E7, and 4-54B9, were grown in one liter cultures and the enzymes were purified. These purified enzymes were assayed for their ability to hydrolyze the different ester substrates in the presence of various concentrations of DMF. FIGS. 8a, b and c show the specific reaction rates on pNPA as a function of pNPA substrate concentration for this series of evolved variants from the four generations of mutagenesis and screening. […] The wild type enzyme outperforms 1-1H9 in purely aqueous buffer (FIG. 8a). The actual screening, however, was performed in the presence of DMF, and in 15 and 30% DMF, 1-1H9 has higher specific activity towards pNPA than wild type (FIGS. 8b and 8c). Similar trends are seen for the remaining variants assayed on this substrate. […] In 30% DMF, wild type drops still further relative to the pNB esterase variants. Variants 4-38B9 and 4-43E7, presumably by, virtue of having been screened in DMF for four rounds of mutagenesis, are the best performers in 30% DMF.
(§2) DMF dramatically increases KM while also decreasing kcat. For the LCN substrates, the mutations accumulated during directed evolution mitigate the increased KM. The effects on kcat, however, are more prominent: kcat increases more than 9-fold from wild type to 4-54B9 in 15% DMF, while KM decreases by less than a factor of two on LCN-pNB. […] At substrate concentrations […], increased specific activity will result mainly from improvements in kcat. These improvements are obviously the most useful for enzymes intended to be used for transformations in high substrate concentrations.
(§3) Kinetic assays were performed on three substrates: pNPA, LCN-pNP, and p-nitrobenzyl loracarbef nucleus (LCN-pNB). For pNPA and LCN-pNP substrates, final concentrations varying from 0.0625 mM to 16 mM and 0, 15, and 30% DMF in 0.1M PIPES (Sigma), pH 7.0 were combined with equal volumes of enzyme samples. These samples were mixed simultaneously in a 96 well plate and monitored with the 96 well plate reader. The absorbance values were recorded, linearly regressed, and then used for calculating kinetic parameters. For the LCN-pNB substrate, final concentrations varying from 0.0156 mM to 8.0 mM and 0, 15 and 30% DMF in PIPES, pH 7.0 were combined with enzyme samples in a quartz cuvette and were measured in a spectrophotometer at 289 nm. All assays were measured in triplicate.

[2] = biological target: T2, Bacillus subtilis para-nitrobenzyl esterase variant 2-19E10 (1-1H9 substitutions + M358V), SEQ. ID. NO. 6 (Bacillus subtilis, UniProt P37967, H322R/M358V/Y370F); parameters: unit not given beside the values
T2 sequence (P37967 1-489 K23L/S59P/K95Q/N150D/S230A/G242S/K246R/S251A/A291S/H322R/V343A/M358V/Y370F/K390E/L463V): T1 sequence (P37967 1-489 K23L/S59P/K95Q/N150D/S230A/G242S/K246R/S251A/A291S/V343A/K390E/L463V) with H322R, M358V, Y370F
Protocol: as §1, §2, §3

[3] = biological target: T3, Bacillus subtilis para-nitrobenzyl esterase variant 4-43E7 (3-10C4 substitutions + L334V and one further substitution), SEQ. ID. NO. 12 (Bacillus subtilis, UniProt P37967, H322R/L144M/L334V/M358V/S94G/Y370F); parameters: unit not given beside the values
T3 sequence (P37967 1-489 K23L/S59P/S94G/K95Q/L144M/N150D/S230A/G242S/K246R/S251A/A291S/H322R/L334V/V343A/M358V/Y370F/K390E/L463V): T1 sequence (P37967 1-489 K23L/S59P/K95Q/N150D/S230A/G242S/K246R/S251A/A291S/V343A/K390E/L463V) with S94G, L144M, H322R, L334V, M358V, Y370F
Protocol: as §1, §2, §3

[4] = biological target: T4, Bacillus subtilis para-nitrobenzyl esterase variant 4-54B9 (3-10C4 substitutions + L334S and one further substitution), SEQ. ID. NO. 14 (Bacillus subtilis, UniProt P37967, H322R/K267R/L144M/L334S/M358V/Y370F); parameters: unit not given beside the values
T4 sequence (P37967 1-489 K23L/S59P/K95Q/L144M/N150D/S230A/G242S/K246R/S251A/K267R/A291S/H322R/L334S/V343A/M358V/Y370F/K390E/L463V): T1 sequence (P37967 1-489 K23L/S59P/K95Q/N150D/S230A/G242S/K246R/S251A/A291S/V343A/K390E/L463V) with L144M, K267R, H322R, L334S, M358V, Y370F
Protocol: as §1, §2, §3

[5] = biological target: T5, Bacillus subtilis para-nitrobenzyl esterase variant 1-1H9 (incl. Y370F), SEQ. ID. NO. 4 (Bacillus subtilis, UniProt P37967, H322R/Y370F)
T5 sequence (P37967 1-489 K23L/S59P/K95Q/N150D/S230A/G242S/K246R/S251A/A291S/H322R/V343A/Y370F/K390E/L463V): T1 sequence (P37967 1-489 K23L/S59P/K95Q/N150D/S230A/G242S/K246R/S251A/A291S/V343A/K390E/L463V) with H322R, Y370F
Protocol: Bacteria expressing seven pNB esterases, 0-WT (SEQ. ID. NO. 2), 1-1H9, 2-19E10, 3-10C4, 4-38B9, 4-43E7, and 4-54B9, were grown in one liter cultures and the enzymes were purified. These purified enzymes were assayed for their ability to hydrolyze the different ester substrates in the presence of various concentrations of DMF.
The effects on kcat, however, are more prominent: kcat increases more than 9-fold from wild type to 4-54B9 in 15% DMF, while KM decreases by less than a factor of two on LCN-pNB. […] These improvements are obviously the most useful for enzymes intended to be used for transformations in high substrate concentrations.
as §3

[6] = biological target: T6, Bacillus subtilis para-nitrobenzyl esterase variant 3-10C4 (2-19E10 substitutions + L144M), SEQ. ID. NO. 8 (Bacillus subtilis, UniProt P37967, H322R/L144M/M358V/Y370F)
T6 sequence (P37967 1-489 K23L/S59P/K95Q/L144M/N150D/S230A/G242S/K246R/S251A/A291S/H322R/V343A/M358V/Y370F/K390E/L463V): T1 sequence (P37967 1-489 K23L/S59P/K95Q/N150D/S230A/G242S/K246R/S251A/A291S/V343A/K390E/L463V) with L144M, H322R, M358V, Y370F
Protocol: as §1, §2, §3

[7] = biological target: T7, Bacillus subtilis para-nitrobenzyl esterase variant 4-38B9 (3-10C4 substitutions + I60V), SEQ. ID. NO. 10 (Bacillus subtilis, UniProt P37967, H322R/I60V/L144M/M358V/Y370F)
T7 sequence (P37967 1-489 K23L/S59P/I60V/K95Q/L144M/N150D/S230A/G242S/K246R/S251A/A291S/H322R/V343A/M358V/Y370F/K390E/L463V): T1 sequence (P37967 1-489 K23L/S59P/K95Q/N150D/S230A/G242S/K246R/S251A/A291S/V343A/K390E/L463V) with I60V, L144M, H322R, M358V, Y370F
Protocol: as §1, §2, §3

[8] = substrate p-nitrobenzyl loracarbef nucleus, 0% DMF
[9] = substrate p-nitrobenzyl loracarbef nucleus, 15% DMF
[10] = substrate p-nitrophenyl loracarbef nucleus, 0% DMF
[11] = substrate p-nitrophenyl loracarbef nucleus, 15% DMF
[12] = substrate p-nitrophenyl loracarbef nucleus, 30% DMF

Molecule NC1C(=O)N2C(C(=O)OCc3ccc([N+](=O)[O-])cc3)=C(Cl)CCC12 (centres unmarked) [p-nitrobenzyl loracarbef nucleus] has a kcat [1, 8] of 1.64, a kcat [1, 9] of 0.54 and a kcat [2, 8] of 4.59. For the same molecule, the kcat [2, 9] was 1.81, the kcat [3, 8] was 9.13 and the kcat [3, 9] was 3.02. It also gave a kcat [4, 8] of 18.96, a kcat [4, 9] of 6.84 and a kcat [5, 8] of 1.94. It also gave a kcat [5, 9] of 0.69, a kcat [6, 8] of 6.53 and a kcat [6, 9] of 1.62. It also gave a kcat [7, 8] of 8.51 and a kcat [7, 9] of 1.89.

NC1C(=O)N2C(C(=O)Oc3ccc([N+](=O)[O-])cc3)=C(Cl)CCC12 (centres unmarked) [p-nitrophenyl loracarbef nucleus] was tested, and the kcat [1, 10] was 0.14, the kcat [1, 11] was 0.10 and the kcat [1, 12] was 0.024. The kcat [2, 10] was 0.25, the kcat [2, 11] was 0.12 and the kcat [2, 12] was 0.023. For the same molecule, the kcat [3, 10] was 0.67, the kcat [3, 11] was 0.40 and the kcat [3, 12] was 0.094. The kcat [4, 10] was 1.44, the kcat [4, 11] was 0.93 and the kcat [4, 12] was 0.141. For the same molecule, the kcat [5, 10] was 0.08, the kcat [5, 11] was 0.07 and the kcat [5, 12] was 0.021. It also gave a kcat [6, 10] of 0.35, a kcat [6, 11] of 0.21 and a kcat [6, 12] of 0.044. It also gave a kcat [7, 10] of 0.39, a kcat [7, 11] of 0.25 and a kcat [7, 12] of 0.067.
